We go through eleven compounds from US9266939B2, “Compositions comprising natriuretic peptides and methods of use thereof” (Alexion Pharmaceuticals, Inc., priority 2010, dated 2016).

Like-named read-outs stand apart in the source and are kept apart here. Bridge positions count the residues as written; N and C are the ends. Ends that are not written are not given here. Peptide text beside a SMILES is read from it.

The target of data set [1] is T1, neutral endopeptidase (NEP) (Homo sapiens, UniProt P08473). In words: in vitro. As to conditions: isolated enzyme neprilysin, pH 7.5.
Data set [2] addresses T1, neutral endopeptidase (NEP).
In the next data set the target is T2, NPR-B (Homo sapiens, UniProt P20594).
T2 sequence (P20594 23-1047): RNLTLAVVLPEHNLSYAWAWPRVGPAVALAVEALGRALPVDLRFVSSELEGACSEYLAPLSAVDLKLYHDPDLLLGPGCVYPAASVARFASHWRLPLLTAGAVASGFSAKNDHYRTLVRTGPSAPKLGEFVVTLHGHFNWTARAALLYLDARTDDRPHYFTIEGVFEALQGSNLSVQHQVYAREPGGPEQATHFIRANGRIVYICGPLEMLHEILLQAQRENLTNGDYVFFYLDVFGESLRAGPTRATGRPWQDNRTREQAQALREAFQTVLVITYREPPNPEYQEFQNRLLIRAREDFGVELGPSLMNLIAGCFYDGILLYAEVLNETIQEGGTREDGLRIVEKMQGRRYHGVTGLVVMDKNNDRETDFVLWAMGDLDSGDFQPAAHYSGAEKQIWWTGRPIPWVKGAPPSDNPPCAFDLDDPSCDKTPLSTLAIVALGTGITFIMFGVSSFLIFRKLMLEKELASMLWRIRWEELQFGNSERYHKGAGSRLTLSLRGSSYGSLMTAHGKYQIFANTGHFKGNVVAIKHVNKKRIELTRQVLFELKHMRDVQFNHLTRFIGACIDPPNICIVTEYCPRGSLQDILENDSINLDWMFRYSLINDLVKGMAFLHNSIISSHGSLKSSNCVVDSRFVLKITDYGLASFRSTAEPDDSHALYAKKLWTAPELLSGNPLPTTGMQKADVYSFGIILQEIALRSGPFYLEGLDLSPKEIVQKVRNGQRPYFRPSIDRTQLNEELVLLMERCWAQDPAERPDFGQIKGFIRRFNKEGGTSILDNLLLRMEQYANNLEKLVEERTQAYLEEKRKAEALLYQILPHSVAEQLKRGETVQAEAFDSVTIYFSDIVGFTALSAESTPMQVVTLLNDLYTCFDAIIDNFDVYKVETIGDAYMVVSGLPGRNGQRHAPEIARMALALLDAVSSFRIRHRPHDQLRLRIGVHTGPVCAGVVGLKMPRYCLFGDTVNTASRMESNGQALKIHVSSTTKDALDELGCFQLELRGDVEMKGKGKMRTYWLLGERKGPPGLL
In words: Whole cell guanylyl cyclase (cGMP) assay, NPR-B. It is filed as cell-based. Also on record: expressed in transfected cells. Particulars: for Emax: read-out: % Efficacy. As to the method:
HEK293S cells in a semi-confluent 75 cm2 flask are transfected with 30 μg of plasmid DNA coding for the appropriate receptor, e.g., human NPR-B or NPR-A, using Lipofectamine-2000CD. Alternatively, a stable polyclonal HEK293 S cell line expressing either human NPR-B or NPR-A was used. 24 hours after transfection, cells are trypsinized and plated into 48-well plates at 1×10^5 cells/well. Guanylyl cyclase assay is carried out 24 hours post-plating. Cells are first incubated for 30 minutes at 37° C. with serum-free DMEM medium. Then, they are incubated in triplicate with or without increasing concentrations of reference or test proteins in serum-free DMEM supplemented with 1 mM IBMX and 0.5% BSA, at 37° C. for 30 minutes to one hour. CNP serves as a suitable reference for NPR-B, while ANP is a suitable reference for NPR-A. Finally, cells are washed with ice-cold PBS and solubilized in lysis buffer from Catchpoint cGMP kit (Molecular devices). Concentrations of cGMP in lysate are determined using the Catchpoint cGMP kit. Dose-response curves are analysed with GraphPad Prism 5 software using non-linear regression with four-parameter logistic equation.

T1 sequence (P08473 whole entry): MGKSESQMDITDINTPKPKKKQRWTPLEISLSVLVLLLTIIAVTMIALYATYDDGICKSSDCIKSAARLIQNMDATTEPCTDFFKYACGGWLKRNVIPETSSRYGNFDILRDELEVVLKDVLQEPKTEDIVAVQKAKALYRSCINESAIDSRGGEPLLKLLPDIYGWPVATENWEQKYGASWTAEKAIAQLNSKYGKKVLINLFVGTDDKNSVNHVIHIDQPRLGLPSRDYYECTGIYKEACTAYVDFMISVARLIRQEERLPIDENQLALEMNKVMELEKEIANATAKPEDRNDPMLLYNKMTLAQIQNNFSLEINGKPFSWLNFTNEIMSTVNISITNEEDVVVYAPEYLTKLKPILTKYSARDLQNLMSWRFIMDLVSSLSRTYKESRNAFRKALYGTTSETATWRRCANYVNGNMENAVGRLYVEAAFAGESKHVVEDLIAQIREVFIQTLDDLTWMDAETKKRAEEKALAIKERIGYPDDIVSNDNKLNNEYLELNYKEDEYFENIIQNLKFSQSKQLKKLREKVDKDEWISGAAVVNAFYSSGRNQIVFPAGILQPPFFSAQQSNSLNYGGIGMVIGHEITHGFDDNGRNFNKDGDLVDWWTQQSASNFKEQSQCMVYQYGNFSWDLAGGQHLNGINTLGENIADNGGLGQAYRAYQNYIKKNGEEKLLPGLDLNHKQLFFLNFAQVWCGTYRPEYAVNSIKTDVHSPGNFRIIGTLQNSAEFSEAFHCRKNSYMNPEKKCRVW

Consider `CC[C@H](C)[C@@H]1NC(=O)[C@H](CCCNC(=N)N)NC(=O)[C@H](CC(=O)O)NC(=O)[C@H](CC(C)C)NC(=O)[C@H](CCCCN)NC(=O)[C@H](CC(C)C)NC(=O)CNC(=O)[C@H](Cc2ccccc2)NC(=O)[C@@H](NC(=O)CNC(=O)[C@H](CCCCN)NC(=O)[C@H](CO)NC(=O)[C@H](CC(C)C)NC(=O)CN)CSSC[C@@H](C(=O)N2CCC[C@H]2C(=O)N[C@@H](CO)C(=O)N[C@@H](CO)C(=O)N[C@@H](C)C(=O)N[C@@H](C)C(=O)N[C@@H](CCCNC(=N)N)C(=O)N[C@@H](CCCNC(=N)N)C(=O)O)NC(=O)CNC(=O)[C@H](CC(C)C)NC(=O)CNC(=O)[C@H](CO)NC(=O)[C@H](CCSC)NC(=O)[C@H](CO)NC(=O)CNC1=O` [CDNP29-S3A4A5R6 [C14]], for which the share remaining at 4 h in data set [1] was found to be 99%.

On to `CC[C@H](C)[C@@H]1NC(=O)[C@H](CCCNC(=N)N)NC(=O)[C@H](CC(=O)O)NC(=O)[C@H](CC(C)C)NC(=O)[C@H](CCCCN)NC(=O)[C@H](CC(C)C)NC(=O)CNC(=O)[C@H](Cc2ccccc2)NC(=O)[C@@H](NC(=O)CNC(=O)[C@H](CCCCN)NC(=O)[C@H](CO)NC(=O)[C@H](CC(C)C)NC(=O)CN)CSSC[C@@H](C(=O)N2CCC[C@H]2C(=O)N[C@@H](CO)C(=O)N[C@@H](CO)C(=O)N[C@@H](C)C(=O)N[C@@H](C)C(=O)N[C@@H](CCCNC(=N)N)C(=O)N[C@@H](CCCNC(=N)N)C(=O)N2CCC[C@H]2C(=O)N[C@@H](CC(N)=O)C(=O)N[C@@H](C)C(=O)N2CCC[C@H]2C(=O)N[C@@H](CO)C(=O)N[C@H](C(=O)N[C@@H](CO)C(=O)N[C@@H](C)C(=O)O)[C@@H](C)O)NC(=O)CNC(=O)[C@H](CC(C)C)NC(=O)CNC(=O)[C@H](CO)NC(=O)[C@H](CCSC)NC(=O)[C@H](CO)NC(=O)CNC1=O` [CDNP-S3A4A5R6 [C13]] (HELM PEPTIDE1{G.L.S.K.G.C.F.G.L.K.L.D.R.I.G.S.M.S.G.L.G.C.P.S.S.A.A.R.R.P.N.A.P.S.T.S.A}$PEPTIDE1,PEPTIDE1,6:R3-22:R3$$$V2.0), for which the share remaining at 4 h in data set [1] came to 100%.

Usually EC50 stands for the concentration that produces a half-maximal response. On to `CC[C@H](C)[C@@H]1NC(=O)[C@H](CCCNC(=N)N)NC(=O)[C@H](CC(=O)O)NC(=O)[C@H](CC(C)C)NC(=O)[C@H](CCCCN)NC(=O)[C@H](CC(C)C)NC(=O)CNC(=O)[C@H](Cc2ccccc2)NC(=O)[C@@H](NC(=O)CNC(=O)[C@H](CCCCN)NC(=O)[C@H](CO)NC(=O)[C@H](CC(C)C)NC(=O)CN)CSSC[C@@H](C(=O)O)NC(=O)CNC(=O)[C@H](CC(C)C)NC(=O)CNC(=O)[C@H](CO)NC(=O)[C@H](CCSC)NC(=O)[C@H](CO)NC(=O)CNC1=O` [CNP22, reference compound], for which, in data set [2], the “% of control after 240 min” value worked out at 0% and the “Resist NEP degradation (No/Yes)” value was “No”. The share remaining at 4 h in data set [1] came out at 0%. On NPR-B, the “EC50 Ratio versus CNP22” value is 1.00, the “Rescue Ratio versus CNP22” value is listed as 1 and the Emax was 100%. Also, the midpoint of the response on NPR-B (EC50), the EC50, lay at 14.7 ± 3.4 nM. It took 4.87 nM to reach a half-maximal effect on NPR-B (EC50 on NPR-B) (EC50). On NPR-B (agonist concentration producing cGMP as 2.4 nM (lower) and 14 nM (high) CNP22), this compound showed a Rescue range of 2.4 to 14 nM. Besides, the “Rescue Ratio Average” value at NPR-B (peptides, NPR-B whole cell cGMP assay) is listed as 1.

`CC[C@H](C)[C@@H]1NC(=O)[C@H](CCCNC(=N)N)NC(=O)[C@H](CC(=O)O)NC(=O)[C@H](CC(C)C)NC(=O)[C@H](CCCCN)NC(=O)[C@H](CC(C)C)NC(=O)CNC(=O)[C@H](Cc2ccccc2)NC(=O)[C@@H](NC(=O)CNC(=O)[C@H](CCCCN)NC(=O)[C@H](CO)NC(=O)[C@H](CC(C)C)NC(=O)CNC(=O)CNC(=O)[C@H](CO)NC(=O)[C@H](CO)NC(=O)[C@H](C)NC(=O)[C@H](C)NC(=O)[C@@H]2CCCN2C(=O)[C@H](CCCNC(=N)N)NC(=O)[C@@H]2CCCN2C(=O)[C@H](CC(N)=O)NC(=O)[C@H](C)NC(=O)[C@@H]2CCCN2C(=O)[C@H](CO)NC(=O)[C@@H](NC(=O)[C@H](CO)NC(=O)[C@H](C)N)[C@@H](C)O)CSSC[C@@H](C(=O)O)NC(=O)CNC(=O)[C@H](CC(C)C)NC(=O)CNC(=O)[C@H](CO)NC(=O)[C@H](CCSC)NC(=O)[C@H](CO)NC(=O)CNC1=O` [CNP-Nterm2 [C5]] (HELM PEPTIDE1{A.S.T.S.P.A.N.P.R.P.A.A.S.S.G.G.L.S.K.G.C.F.G.L.K.L.D.R.I.G.S.M.S.G.L.G.C}$PEPTIDE1,PEPTIDE1,21:R3-37:R3$$$V2.0): the amount remaining at 4 h in data set [1] turned out to be 106%.

Consider “DDDDDDGGGGSGGGGSGGGGGLSKGCFGLKLDRIGSMSGLGC (disulfide 26-42) [D6-14AAlinker-CNP [C3]]”, for which, in data set [1], the share remaining at 4 h turned out to be 101%.

With “EEEEEEASTSPANPQPAASSPGLSKGCFGLKLDRIGSMSGLGC (disulfide 27-43) [C2(E6) [BC2]]”, the “Resist NEP degradation (No/Yes)” value in data set [2] is “Yes”. The fraction remaining at 4 h in data set [1] is 101%. For the same compound, on NPR-B, the “EC50 Ratio versus CNP22” value was found to be 49.0, the “Rescue Ratio Average” value is listed as 803, the “Rescue Ratio versus CNP22” value was 177-1429 and the Rescue range lay in the range of 424 to 20000 nM. Besides, at NPR-B, the Emax worked out at 97%. Besides, on NPR-B (EC50), it took 720 nM to reach a half-maximal effect (EC50).

As for “EEEEEEHGPQGQEHPNARKYKGANKKGLSKGCFGLKLDRIGSMSGLGC (disulfide 32-48) [KA1(E6)]”, the “Resist NEP degradation (No/Yes)” value in data set [2] is recorded as “Yes”. In addition, in data set [1], the share remaining at 4 h stood at 108%. Besides, on NPR-B, the “EC50 Ratio versus CNP22” value was determined as 9.79, the “Rescue Ratio Average” value amounted to 8.2, the Rescue range fell in the range of 21.6 to 102 nM and the “potency compared with the other tested peptides” value was “more potent than the other tested peptides”. On NPR-B, the Emax was determined as 108%. At NPR-B (EC50), this compound showed an EC50 of 144 nM.

“EEEEEEHKLRGQEHPNARKYKGANKKGLSKGCFGLKLDRIGSMSGLGC (disulfide 32-48) [KB1(E6)]”: the “Resist NEP degradation (No/Yes)” value in data set [2] is given as “Yes”. For the same compound, the amount remaining at 4 h in data set [1] was found to be 107%. Besides, at NPR-B, the “EC50 Ratio versus CNP22” value is given as 5.75, the “Rescue Ratio Average” value stood at 5.6, the “Rescue Ratio versus CNP22” value is listed as 5.6-5.6 and the Rescue range is 13.4 to 78.1 nM. For the same compound, at NPR-B, the “potency compared with the other tested peptides” value is on record as “more potent than the other tested peptides” and the Emax was determined as 109%. On NPR-B (EC50), this compound displayed an EC50 of 84.5 nM.

“EEEEEEPSSAAPQPNAPSTSAGLSKGCFGLKLDRIGSMSGLGC (disulfide 27-43) [C3(E6) [BC3]]”: the “Resist NEP degradation (No/Yes)” value in data set [2] is on record as “Yes”. Moreover, the fraction remaining at 4 h in data set [1] is 100%. For the same compound, at NPR-B, the “EC50 Ratio versus CNP22” value amounted to 67.4, the “Rescue Ratio Average” value came to 199, the “Rescue Ratio versus CNP22” value was 117-281 and the Rescue range fell in the range of 280 to 3927 nM. For the same compound, the Emax on NPR-B is 67%. Also, the EC50 on NPR-B (EC50) is 990 nM.

As to “EEEEEESGGGGSGGGGSGGGGGLSKGCFGLKLDRIGSMSGLGC (disulfide 27-43) [C1(E6) [BC1]]”, the “Resist NEP degradation (No/Yes)” value in data set [2] was “Yes”. In addition, the amount remaining at 4 h in data set [1] amounted to 99%. Also, on NPR-B, the “EC50 Ratio versus CNP22” value is reported as 118, the “Rescue Ratio Average” value was determined as 122, the “Rescue Ratio versus CNP22” value is on record as 120-124 and the Rescue range is 289 to 1733 nM. The Emax on NPR-B is 97%. Also, a half-maximal effect at NPR-B (EC50) (EC50) was put at 1740 nM.

Take “EEEEEESGGGGSGGGKGANKKGLSKGCFGLKLDRIGSMSGLGC (disulfide 27-43) [C4(E6) [BC4]]”: the “Resist NEP degradation (No/Yes)” value in data set [2] was “Yes”. For the same compound, the amount remaining at 4 h in data set [1] was 94%. On NPR-B, the “EC50 Ratio versus CNP22” value was found to be 20.5, the “Rescue Ratio Average” value was 18, the Rescue range fell in the range of 46 to 219 nM and the Emax was determined as 136%. Besides, a half-maximal effect on NPR-B (EC50) (EC50) was put at 302 nM.
